We go through 26 compounds from patent US20050096350A1, “Halo substituted benzo[b]thiophenes as therapeutic agents” (priority 2003, published 2005).

This assay concerns the target T1, PI3Kγ (purified recombinant p101/p110γ protein) (Homo sapiens, UniProt P48736).
T1 construct: HA; made in house; host or cells: Spodoptera frugiperda Sf9 cells (baculovirus coinfection)
Kind of assay: PI3Kγ in vitro kinase assay. The class given is biochemical. The following applies: 20 μM ATP, 25 μM PIP2, G protein β1/γ2 subunits. As for the experimental part:
Spodtera frugiperda cells, grown in ESF921 media, were coinfected with baculovirus expressing a glu-tagged p101 and baculovirus expressing an HA-tagged […], at a 3:1 ratio of p101 baculovirus to p110γ baculovirus. Sf9 cells were grown to 1×10^7 total cells/mL in 10 L bioreactors and harvested 48-72 hours post infection. Samples of infected cells were then tested for expression of p101/p110γ PI3 kinase by immunoprecipitation and Western Blot analysis methods (see below).
To purify PI3Kγ, 4 volumes of room temperature hypotonic lysis buffer (1 mM MgCl2, 1 mM DTT, 5 mM EGTA, 1 mM Pefabloc, 0.5 μM aprotinin, 5 μM leupeptin, 2 μM pepstatin, 5 μM E64, pH 8) per gram of cell paste, was poured onto frozen cell pellets with stirring, then lysed in a nitrogen “bomb” at 400 psi (599HC T316, Parr Instrument Co, Moline, Ill.). NaCl was added to 150 mM, and sodium cholate was added to 1% and mixed for another 45 minutes. The lysates were clarified by centrifugation for 25 minutes at 14,000 rpm. The lysates were then loaded over anti-glu-linked Protein-G Sepaharose beads (Covance Research Products, Richmond, Calif.) using 20 mL resin/50 g cell paste. The column was washed with 15 volumes of wash buffer (1 mM DTT, 0.2 mM EGTA, 1 mM Pefabloc, 0.5 μM aprotinin, 5 μM leupeptin, 2 μM pepstatin, 5 μM E64, 150 mM NaCl, 1% sodium cholate, pH 8). PI3Kγ was eluted with 6 column volumes of wash buffer that contain 100 μg/mL of a peptide that competes for binding of the glu tag. The column fractions with the eluted protein (determined by taking OD280 readings) were collected and dialyzed in 0.2 mM EGTA, 1 mM DTT, 1 mM Pefabloc, 5 μM leupeptin, 0.5% sodium cholate, 150 mM NaCl, and 50% glycerol, pH 8. The fractions were stored at −80° C. until further use.
Spodtera frugiperda cells were coinfected with baculovirus expressing a glu-tagged G protein β1 and baculovirus expressing a G protein β2, at a 1:1 ratio of glu-tagged G protein β1 baculovirus to G protein β2 baculovirus. Sf9 cells are grown in 10 L bioreactors and harvested 48-72 hours post infection. Samples of infected cells were tested for G protein β1/β2 expression by Western Blot analysis, as described below. Cell lysates were homogenized and loaded onto a column of glu-tagged beads as in Biological Example 1 and competed off the column with a glu peptide and processed as described in Biological Example 1.
The inhibitory properties of the compounds in Table 1 were assayed in an in vitro PI3K assay. In a 96-well polypropylene plate, each well was spotted with 2 μL of 50 times the desired final concentration of compound in DMSO. Purified recombinant p101/p110γ protein (0.03 μg; ˜2.7 nM) and G protein β1/γ2 subunits (0.09 μg; ˜57.7 nM) for each reaction was combined in the assay buffer (30 mM HEPES, 100 mM NaCl, 1 mM EGTA, and 1 mM DTT). ATP and [γ-^32P-ATP] (0.09 μCi) were added to this mixture so that the final ATP concentration in the reaction was 20 μM. Lipid micelles were formed by sonicating phosphatidylinositol-4,5-diphosphate (PIP2), phosphatidylethanolamine (PE), and Na-cholate in the assay buffer for 10 minutes, adding MgCl2 and incubating on ice for 20 minutes, for final concentrations of 25 μM PIP2, 300 μM PE, 0.02% Na-cholate, and 10 mM MgCl2 in the reaction. The reactions were started by adding equal volumes lipid and enzyme mixture in a total volume of 50 μL, allowed to run for 20 minutes at room temperature, and stopped with 100 μL 75 mM H3PO4. The lipid product was transferred to a glass fiber filter plate and washed with 75 mM H3PO4 several times. The presence of radioactive lipid product (PIP3) was measured by adding Wallac Optiphase mix to each well and counting in a Wallac 1450 Trilux plate reader (PerkinElmer Life Sciences Inc., Boston, Mass. 02118). The IC50 for each compound tested is reported in μM in the Tables above.

One may read the IC50 as the point on the concentration scale where inhibition reaches its midpoint.

T1 sequence (P48736 whole entry, species assumed): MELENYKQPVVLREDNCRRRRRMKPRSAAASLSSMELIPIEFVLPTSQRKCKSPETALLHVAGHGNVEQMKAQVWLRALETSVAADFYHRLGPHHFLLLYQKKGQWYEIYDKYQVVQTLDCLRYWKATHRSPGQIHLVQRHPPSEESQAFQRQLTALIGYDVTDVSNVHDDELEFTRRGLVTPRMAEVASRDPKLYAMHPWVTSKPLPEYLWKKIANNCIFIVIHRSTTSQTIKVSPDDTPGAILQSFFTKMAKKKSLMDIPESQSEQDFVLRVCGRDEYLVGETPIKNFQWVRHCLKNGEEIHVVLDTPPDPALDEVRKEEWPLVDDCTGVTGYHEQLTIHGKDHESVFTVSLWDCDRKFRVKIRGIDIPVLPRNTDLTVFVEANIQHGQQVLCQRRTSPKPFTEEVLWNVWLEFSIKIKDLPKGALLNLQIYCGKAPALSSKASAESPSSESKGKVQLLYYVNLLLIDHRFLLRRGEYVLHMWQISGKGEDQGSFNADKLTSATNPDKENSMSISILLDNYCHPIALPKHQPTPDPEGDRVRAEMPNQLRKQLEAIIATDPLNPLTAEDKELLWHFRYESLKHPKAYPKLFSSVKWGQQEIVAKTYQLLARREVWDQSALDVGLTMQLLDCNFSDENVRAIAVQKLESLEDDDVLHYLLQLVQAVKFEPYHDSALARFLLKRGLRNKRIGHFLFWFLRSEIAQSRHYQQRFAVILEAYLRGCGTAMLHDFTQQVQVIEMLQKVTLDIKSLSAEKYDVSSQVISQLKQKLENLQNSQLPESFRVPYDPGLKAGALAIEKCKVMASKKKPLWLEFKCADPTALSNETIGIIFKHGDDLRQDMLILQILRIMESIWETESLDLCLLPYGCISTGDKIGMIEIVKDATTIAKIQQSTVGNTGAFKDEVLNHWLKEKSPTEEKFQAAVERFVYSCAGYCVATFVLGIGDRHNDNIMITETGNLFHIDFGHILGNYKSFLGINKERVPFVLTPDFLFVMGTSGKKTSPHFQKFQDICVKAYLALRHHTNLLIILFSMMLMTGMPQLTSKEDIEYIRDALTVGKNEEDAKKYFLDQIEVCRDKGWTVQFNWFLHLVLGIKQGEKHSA
T1 sequence (Q8WYR1 whole entry partner, species assumed): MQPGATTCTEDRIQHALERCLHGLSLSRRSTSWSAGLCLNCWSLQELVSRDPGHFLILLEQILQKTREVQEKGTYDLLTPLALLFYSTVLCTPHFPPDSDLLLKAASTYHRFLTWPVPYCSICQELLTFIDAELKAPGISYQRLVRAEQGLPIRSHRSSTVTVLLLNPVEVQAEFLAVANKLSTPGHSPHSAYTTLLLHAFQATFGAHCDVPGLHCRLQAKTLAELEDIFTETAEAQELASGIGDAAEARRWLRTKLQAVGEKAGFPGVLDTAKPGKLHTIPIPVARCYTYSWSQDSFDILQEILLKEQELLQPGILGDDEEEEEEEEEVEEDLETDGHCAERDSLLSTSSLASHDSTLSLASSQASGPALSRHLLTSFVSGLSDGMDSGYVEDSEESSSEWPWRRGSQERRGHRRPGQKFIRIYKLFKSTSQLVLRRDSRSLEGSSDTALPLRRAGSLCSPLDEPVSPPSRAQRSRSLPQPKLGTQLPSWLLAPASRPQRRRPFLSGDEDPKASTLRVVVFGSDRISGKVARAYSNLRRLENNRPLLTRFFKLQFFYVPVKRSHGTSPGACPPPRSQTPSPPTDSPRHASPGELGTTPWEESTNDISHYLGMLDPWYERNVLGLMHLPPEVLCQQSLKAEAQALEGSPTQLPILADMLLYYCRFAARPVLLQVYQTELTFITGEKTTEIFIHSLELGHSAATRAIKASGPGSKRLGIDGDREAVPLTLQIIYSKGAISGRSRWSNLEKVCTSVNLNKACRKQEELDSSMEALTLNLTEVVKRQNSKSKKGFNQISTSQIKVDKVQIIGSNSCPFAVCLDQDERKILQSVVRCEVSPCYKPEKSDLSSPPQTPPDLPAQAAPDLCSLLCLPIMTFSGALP

“3-(4-Chloro-phenylsulfanyl)-6-fluoro-5-methoxy-benzo[b]thiophene-2-carboxylic acid (1H-tetrazol-5-yl)-amide [Example 20]”: the IC50 is 45.5 nM.
Consider “3-(4-Cyclohexyl-phenylsulfanyl)-4-fluoro-5-methoxy-benzo[b]thiophene-2-carboxylic acid (1H-tetrazol-5-yl)-amide [Example 37]”, for which the half-maximal inhibitory concentration (IC50) was 505 nM.
“3-Cyclohexylsulfanyl-6-fluoro-5-methyl-benzo[b]thiophene-2-carboxylic acid (1H-tetrazol-5-yl)-amide [Example 41]”: the IC50 (table b291) came to 12 nM.
As to “3-[2-(Acetyl-methyl-amino)-1-phenyl-propylsulfanyl]-4-fluoro-5-methoxy-benzo[b]thiophene-2-carboxylic acid (1H-tetrazol-5-yl)-amide [Example 30]”, the IC50 came to 20000 nM.
On to “4-Fluoro-5-methoxy-3-(3-trifluoromethyl-phenylsulfanyl)-benzo[b]thiophene-2-carboxylic acid (1H-tetrazol-5-yl)-amide [Example 29]”, for which the IC50 came to 11000 nM.
As to “6-Fluoro-5-methoxy-3-phenoxy-benzo[b]thiophene-2-carboxylic acid iminomethyl-amide [Example 3]”, the IC50 amounted to 24.5 nM.
For `COc1cc2c(O[C@H]3CCC[C@@H](C)C3)c(C(=O)Nc3nn[nH]n3)sc2cc1F` (racemic) [Example 9, cis-(±)-6-Fluoro-5-methoxy-3-(3-methyl-cyclohexyloxy)-benzo[b]thiophene-2-carboxylic acid (2H-tetrazol-5-yl)-amide], the IC50 was 3.8 nM.
Take `COc1cc2c(O[C@H]3CCC[C@H](C)C3)c(C(=O)Nc3nn[nH]n3)sc2cc1F` (racemic) [Example 17, trans-(±)-6-Fluoro-5-methoxy-3-(3-methyl-cyclohexyloxy)-benzo[b]thiophene-2-carboxylic acid (2H-tetrazol-5-yl)-amide]: the IC50 (table b197) came out at 35 nM.
Regarding `COc1cc2c(Oc3ccc(Cl)cc3)c(C(=O)Nc3nn[nH]n3)sc2cc1F` [Example 1, 3-(4-Chloro-phenoxy)-6-fluoro-5-methoxy-benzo[b]thiophene-2-carboxylic acid (2H-tetrazol-5-yl)-amide], the IC50 is 76.5 nM.
For `COc1cc2c(Oc3ccc(OC4CCCC4)cc3)c(C(=O)Nc3nn[nH]n3)sc2cc1F` [Example 2, 3-(4-Cyclopentyloxy-phenoxy)-6-fluoro-5-methoxy-benzo[b]thiophene-2-carboxylic acid (2H-tetrazol-5-yl)-amide], the IC50 came to 15 nM.
On to `COc1cc2c(Oc3ccc(C4CCCCC4)cc3)c(C(=O)Nc3nn[nH]n3)sc2cc1F` [Example 4, 3-(4-Cyclohexyl-phenoxy)-6-fluoro-5-methoxy-benzo[b]thiophene-2-carboxylic acid (2H-tetrazol-5-yl)-amide], for which the IC50 was found to be 33.5 nM.
As to `CCc1cccc(Oc2c(C(=O)Nc3nn[nH]n3)sc3cc(F)c(OC)cc23)c1` [Example 5, 3-(3-Ethyl-phenoxy)-6-fluoro-5-methoxy-benzo[b]thiophene-2-carboxylic acid (2H-tetrazol-5-yl)-amide], the IC50 was determined as 62.5 nM.
On to `COc1cc2c(Oc3ccc(C(C)C)cc3)c(C(=O)Nc3nn[nH]n3)sc2cc1F` [Example 6, 6-Fluoro-3-(4-isopropyl-phenoxy)-5-methoxy-benzo[b]thiophene-2-carboxylic acid (2H-tetrazol-5-yl)-amide], for which the IC50 is 13.5 nM.
The same measure, in the same setting: the result for `COc1cc2c(OC3CCCCC3)c(C(=O)Nc3nn[nH]n3)sc2cc1F` [Example 7, 3-Cyclohexyloxy-6-fluoro-5-methoxy-benzo[b]thiophene-2-carboxylic acid (2H-tetrazol-5-yl)-amide] reads 10.5 nM.
`COc1cc2c(OC3CCCCCC3)c(C(=O)Nc3nn[nH]n3)sc2cc1F` [Example 8, 3-Cycloheptyloxy-6-fluoro-5-methoxy-benzo[b]thiophene-2-carboxylic acid (2H-tetrazol-5-yl)-amide]: the IC50 was found to be 3.4 nM.
With `COc1cc2c(OC3CC(C)CC(C)(C)C3)c(C(=O)Nc3nn[nH]n3)sc2cc1F` (centres unmarked) [Example 12, 6-Fluoro-5-methoxy-3-(3,3,5-trimethyl-cyclohexyloxy)-benzo[b]thiophene-2-carboxylic acid (2H-tetrazol-5-yl)-amide], the half-maximal inhibitory concentration (IC50) turned out to be 5.3 nM.
On to `COc1cc2c(OC3CCCC(C)(C)C3)c(C(=O)Nc3nn[nH]n3)sc2cc1F` (centres unmarked) [Example 13, 3-(3,3-Dimethyl-cyclohexyloxy)-6-fluoro-5-methoxy-benzo[b]thiophene-2-carboxylic acid (2H-tetrazol-5-yl)-amide], for which the IC50 was found to be 6.5 nM.
For the compound `COc1cc2c(OC3CCOCC3)c(C(=O)Nc3nn[nH]n3)sc2cc1F` [Example 14, 6-Fluoro-5-methoxy-3-(tetrahydro-pyran-4-yloxy)-benzo[b]thiophene-2-carboxylic acid (2H-tetrazol-5-yl)-amide], the IC50 amounted to 62.5 nM.
`COc1cc2c(OC3CC(C)CC(C)C3)c(C(=O)Nc3nn[nH]n3)sc2cc1F` (centres unmarked) [Example 15, 3-(3,5-Dimethyl-cyclohexyloxy)-6-fluoro-5-methoxy-benzo[b]thiophene-2-carboxylic acid (2H-tetrazol-5-yl)-amide]: the half-inhibitory concentration (IC50) was 2.2 nM.
In the case of `COc1cc2c(OC3CCC3)c(C(=O)Nc3nn[nH]n3)sc2cc1F` [Example 16, 3-Cyclobutoxy-6-fluoro-5-methoxy-benzo[b]thiophene-2-carboxylic acid (2H-tetrazol-5-yl)-amide], the IC50 was found to be 32.5 nM.
As for `COc1cccc(Sc2c(C(=O)Nc3nnn[nH]3)sc3cc(F)c(OC)cc23)c1` [Example 18, 6-Fluoro-5-methoxy-3-(3-methoxy-phenylsulfanyl)-benzo[b]thiophene-2-carboxylic acid (1H-tetrazol-5-yl)-amide], the IC50 amounted to 470 nM.
As to `COc1cc2c(Sc3ccccc3)c(C(=O)Nc3nnn[nH]3)sc2cc1F` [Example 19, 6-Fluoro-5-methoxy-3-phenylsulfanyl-benzo[b]thiophene-2-carboxylic acid (1H-tetrazol-5-yl)-amide], the half-maximal inhibitory concentration (IC50) was determined as 32.5 nM.
Regarding `COc1ccc2sc(C(=O)Nc3nnn[nH]3)c(SC3CCCCC3)c2c1F` [Example 21, 3-Cyclohexylsulfanyl-4-fluoro-5-methoxy-benzo[b]thiophene-2-carboxylic acid (1H-tetrazol-5-yl)-amide], the concentration for half-maximal inhibition (IC50) turned out to be 580 nM.
In the case of `COc1ccc2sc(C(=O)Nc3nnn[nH]3)c(Sc3ccc(O)cc3)c2c1F` [Example 22, 4-Fluoro-3-(4-hydroxy-phenylsulfanyl)-5-methoxy-benzo[b]thiophene-2-carboxylic acid (1H-tetrazol-5-yl)-amide], the half-inhibitory concentration (IC50) amounted to 2760 nM.
Still for that read-out and setting: the result for `COc1ccc2sc(C(=O)Nc3nnn[nH]3)c(Sc3cccc(O)c3)c2c1F` [Example 23, 4-Fluoro-3-(3-hydroxy-phenylsulfanyl)-5-methoxy-benzo[b]thiophene-2-carboxylic acid (1H-tetrazol-5-yl)-amide] reads 3640 nM; that for `COC(=O)c1cccc(Sc2c(C(=O)Nc3nnn[nH]3)sc3ccc(OC)c(F)c23)c1` [Example 24, 3-[4-Fluoro-5-methoxy-2-(1H-tetrazol-5-ylcarbamoyl)-benzo[b]thiophen-3-ylsulfanyl]-benzoic acid methyl ester], 4200 nM.
